We go through 19 molecules from patent US9714247B2, “Multiple kinase pathway inhibitors” (Mannkind Corporation, priority 2012, dated 2017).

Read-outs that look alike come from different tables or passages of the source. Where only a bound is given, the exact number is not on record here.

One assay deals with Ramos. Kind of assay: CellTiter-Glo proliferation/viability assay. In kind it is cell-based, human. Particulars: read-out: Ramos EC50. Background: Cellular ATP, detected with luciferase, serves as a proxy for viable cell number.
The next assay concerns the target Lyn (Homo sapiens (Human), UniProt P07948). Particulars: read-out: Lyn IC50.
Another assay concerns DoHH2. Briefly: CellTiter-Glo proliferation/viability assay. It is filed as cell-based, human. Particulars: 48 hrs, read-out: DoHH2 EC50.
In another assay the target is Src (Homo sapiens (Human), UniProt P12931). Particulars: read-out: Src IC50.
The target in a further assay is BTK (Homo sapiens (Human), UniProt Q06187).
Sequence of BTK (Q06187 whole entry): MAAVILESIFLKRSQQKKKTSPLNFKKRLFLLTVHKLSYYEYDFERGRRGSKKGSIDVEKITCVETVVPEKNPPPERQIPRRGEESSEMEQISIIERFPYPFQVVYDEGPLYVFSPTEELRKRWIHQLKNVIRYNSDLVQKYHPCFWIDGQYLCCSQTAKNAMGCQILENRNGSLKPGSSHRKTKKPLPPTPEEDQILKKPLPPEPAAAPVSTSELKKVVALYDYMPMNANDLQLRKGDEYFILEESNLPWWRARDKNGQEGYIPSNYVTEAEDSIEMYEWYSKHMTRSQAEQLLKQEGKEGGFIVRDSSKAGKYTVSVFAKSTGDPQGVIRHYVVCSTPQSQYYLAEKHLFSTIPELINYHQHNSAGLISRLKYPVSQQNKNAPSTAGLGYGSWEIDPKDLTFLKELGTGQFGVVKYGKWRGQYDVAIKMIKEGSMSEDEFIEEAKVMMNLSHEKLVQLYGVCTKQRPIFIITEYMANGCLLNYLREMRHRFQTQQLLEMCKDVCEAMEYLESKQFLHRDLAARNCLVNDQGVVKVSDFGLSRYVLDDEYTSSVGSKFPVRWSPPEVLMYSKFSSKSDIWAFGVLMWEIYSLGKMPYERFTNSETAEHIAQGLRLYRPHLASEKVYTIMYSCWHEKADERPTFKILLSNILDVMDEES

Sequence of Lyn (P07948 whole entry): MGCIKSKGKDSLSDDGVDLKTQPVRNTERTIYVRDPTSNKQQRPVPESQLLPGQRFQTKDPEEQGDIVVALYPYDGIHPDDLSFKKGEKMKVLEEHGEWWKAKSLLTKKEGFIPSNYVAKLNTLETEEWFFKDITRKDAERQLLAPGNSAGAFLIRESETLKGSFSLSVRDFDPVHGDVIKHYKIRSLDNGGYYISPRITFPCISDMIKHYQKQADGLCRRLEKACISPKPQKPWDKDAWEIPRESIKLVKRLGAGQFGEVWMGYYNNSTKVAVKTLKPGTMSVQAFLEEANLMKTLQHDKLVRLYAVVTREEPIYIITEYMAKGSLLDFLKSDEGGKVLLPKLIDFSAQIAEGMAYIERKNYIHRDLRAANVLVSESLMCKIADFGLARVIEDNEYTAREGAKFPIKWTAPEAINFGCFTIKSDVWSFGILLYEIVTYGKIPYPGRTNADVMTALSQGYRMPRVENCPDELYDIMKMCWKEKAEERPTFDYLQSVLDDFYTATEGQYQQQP
Sequence of Src (P12931 whole entry, looked up): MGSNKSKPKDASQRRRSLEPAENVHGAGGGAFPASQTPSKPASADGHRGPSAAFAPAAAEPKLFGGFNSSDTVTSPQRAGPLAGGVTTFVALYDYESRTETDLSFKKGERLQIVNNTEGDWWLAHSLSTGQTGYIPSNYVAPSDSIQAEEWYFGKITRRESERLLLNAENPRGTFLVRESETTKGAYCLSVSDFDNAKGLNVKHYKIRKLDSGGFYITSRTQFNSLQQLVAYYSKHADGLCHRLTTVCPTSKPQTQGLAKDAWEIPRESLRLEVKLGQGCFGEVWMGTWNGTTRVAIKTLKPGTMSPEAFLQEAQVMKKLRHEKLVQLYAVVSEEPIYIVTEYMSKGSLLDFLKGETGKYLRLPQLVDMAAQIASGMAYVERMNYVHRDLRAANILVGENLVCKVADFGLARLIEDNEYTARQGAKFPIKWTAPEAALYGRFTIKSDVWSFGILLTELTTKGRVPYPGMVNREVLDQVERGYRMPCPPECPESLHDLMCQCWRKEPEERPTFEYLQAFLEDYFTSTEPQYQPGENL

`CCN(CC)CCOc1ccc(Nc2cc3c(cn2)cc(-c2c(F)cccc2F)c(=O)n3C2CCOC2)nc1` (single isomer, unassigned) [Compound 144, (R or S)-7-((5-(2-(diethylamino)ethoxy)pyridin-2-yl)amino)-3-(2,6-difluorophenyl)-1-(tetrahydrofuran-3-yl)-1,6-naphthyridin-2(1H)-one]: the results for the EC50 in the assay with Ramos (48 hrs) and in the assay on DoHH2 were 1 to 10 µM and under 1 µM, respectively. The IC50 at Lyn, on Src and on BTK (read-out: BTK IC50) was under 0.1 µM in each case.

Regarding `CCN(CC)CCOc1ccc(Nc2cc3c(cn2)cc(-c2c(Cl)cccc2Cl)c(=O)n3C2CCOC2)nc1` (single isomer, unassigned) [Compound 146, (R or S)-3-(2,6-dichlorophenyl)-7-((5-(2-(diethylamino)ethoxy)pyridin-2-yl)amino)-1-(tetrahydrofuran-3-yl)-1,6-naphthyridin-2(1H)-one], the EC50 is 1 to 10 µM in the assay on Ramos (48 hrs) and under 1 µM with DoHH2. Also, the IC50 on Lyn, at Src and at BTK (read-out: BTK IC50) was under 0.1 µM throughout.

With `O=c1c(-c2c(Cl)cccc2Cl)cc2cnc(Nc3ccc(F)cn3)cc2n1C1CCOC1` (single isomer, unassigned) [Compound 148, (R or S)-3-(2,6-dichlorophenyl)-7-((5-fluoropyridin-2-yl)amino)-1-(tetrahydrofuran-3-yl)-1,6-naphthyridin-2(1H)-one], the half-maximal effective concentration (EC50) was over 10 µM in the assay on Ramos (48 hrs) and under 1 µM in the assay with DoHH2. Further, the 50% inhibitory concentration (IC50) at Lyn, at Src and on BTK (read-out: BTK IC50) was under 0.1 µM each time.

For `CCn1c(=O)c(-c2ccccc2)cc2cnc(Nc3ncc(C)o3)cc21` [Compound 9, 1-Ethyl-7-(5-methyl-oxazol-2-ylamino)-3-phenyl-1H-[1,6]naphthyridin-2-one], the EC50 in the assay with Ramos (Homo sapiens, Ramos, 48 h) was over 10 µM; in the assay with DoHH2 (Homo sapiens, DOHH-2) it was 1 to 10 µM. Also, the IC50 at Lyn was over 5 µM; on Src it was over 5 µM; at BTK, 1 to 5 µM.

On to `CCn1c(=O)c(-c2ccsc2)cc2cnc(Nc3ccc(C)cn3)cc21` [Compound 10, 1-Ethyl-7-(5-methyl-pyridin-2-ylamino)-3-thiophen-3-yl-1H-[1,6]naphthyridin-2-one], for which the EC50 is over 10 µM with Ramos (Homo sapiens, Ramos, 48 hrs) and over 10 µM in the assay on DoHH2 (Homo sapiens, DOHH-2). In addition, the IC50 is over 5 µM on Lyn, over 5 µM at Src and 1 to 5 µM against BTK.

`CCn1c(=O)c(-c2cccs2)cc2cnc(Nc3ccc(C)cn3)cc21` [Compound 11, 1-Ethyl-7-(5-methyl-pyridin-2-ylamino)-3-thiophen-2-yl-1H-[1,6]naphthyridin-2-one]: the EC50 with Ramos (Homo sapiens, Ramos, 48 hrs) was over 10 µM; in the assay with DoHH2 (Homo sapiens, DOHH-2) it was over 10 µM. Moreover, the IC50 on Lyn was over 5 µM; on Src it was over 5 µM; at BTK, 0.1 to 1 µM.

On to `CCn1c(=O)c(C2CCCCC2)cc2cnc(Nc3ccc(C)cn3)cc21` [Compound 12, 3-Cyclohexyl-1-ethyl-7-(5-methyl-pyridin-2-ylamino)-1H-[1,6]naphthyridin-2-one], for which the 50% effective concentration (EC50) in the assay on Ramos (Homo sapiens, Ramos, 48 hrs) is over 10 µM; in the assay on DoHH2 (Homo sapiens, DOHH-2) it was over 10 µM. Further, the IC50 on Lyn, at Src and at BTK (read-out: BTK IC50) was over 5 µM each time.

As for `CCn1c(=O)c(C(C)C)cc2cnc(Nc3ccc(C)cn3)cc21` [Compound 13, 1-Ethyl-3-isopropyl-7-(5-methyl-pyridin-2-ylamino)-1H-[1,6]naphthyridin-2-one], the concentration giving a half-maximal response (EC50) is 1 to 10 µM in the assay with Ramos (Homo sapiens, Ramos, 48 h) and 1 to 10 µM with DoHH2 (Homo sapiens, DOHH-2). The IC50 on Lyn was over 5 µM; at Src, over 5 µM; on BTK, 1 to 5 µM.

Regarding `CCn1c(=O)c(CC(C)C)cc2cnc(Nc3ccc(C)cn3)cc21` [Compound 20, 1-Ethyl-3-isobutyl-7-(5-methyl-pyridin-2-ylamino)-1H-[1,6]naphth yridin-2-one], the EC50 in the assay with Ramos (Homo sapiens, Ramos, 48 h) was over 10 µM; in the assay with DoHH2 (Homo sapiens, DOHH-2) it was over 10 µM. For the same molecule, the IC50 at Lyn is over 5 µM; on Src, over 5 µM; on BTK, 0.1 to 1 µM.

As to `CCn1c(=O)c(-c2ccc(F)cc2)cc2cnc(Nc3ccc(C)cn3)cc21` [Compound 26], the half-maximal effective concentration (EC50) was over 10 µM in the assay on Ramos (Homo sapiens, Ramos, 48 hrs) and over 10 µM in the assay on DoHH2 (Homo sapiens, DOHH-2). The IC50 on Lyn, on Src and on BTK (read-out: BTK IC50) was over 5 µM in each case.

Consider `CCn1c(=O)c(-c2cccc(F)c2)cc2cnc(Nc3ccc(C)cn3)cc21` [Compound 29, 1-ethyl-3-(3-fluorophenyl)-7-(5-methylpyridin-2-ylamino)-1,6-naphthyridin-2(1H)-one], for which the EC50 in the assay with Ramos (Homo sapiens, Ramos, 48 hrs) was over 10 µM; with DoHH2 (Homo sapiens, DOHH-2) it was over 10 µM. The concentration for half-maximal inhibition (IC50) at Lyn, at Src and on BTK (read-out: BTK IC50) was over 5 µM each time.

Turning to `CCN(CC)CCOc1ccc(Nc2cc3c(cn2)cc(C(C)C)c(=O)n3C2CC2)nc1` [Compound 36, 1-Cyclopropyl-7-[5-(2-diethylamino-ethoxy)-pyridin-2-ylamino]-3-isopropyl-1H-[1,6]naphthyridin-2-one], the EC50 in the assay with Ramos (Homo sapiens, Ramos, 48 h) is over 10 µM; in the assay on DoHH2 (Homo sapiens, DOHH-2), 1 to 10 µM.

Regarding `CCOC(=O)/C=C/c1cc2cnc(Nc3ccc(C)cn3)cc2n(CC)c1=O` [Compound 38], the concentration for a half-maximal effect (EC50) in the assay on Ramos (Homo sapiens, Ramos, 48 hrs) is over 10 µM; in the assay on DoHH2 (Homo sapiens, DOHH-2), over 10 µM. The IC50 on Lyn, on Src and on BTK (read-out: BTK IC50) was over 5 µM each time.

`O=c1c(-c2c(F)cccc2F)cc2cnc(Nc3ccc(F)cn3)cc2n1C1CCOCC1` [Compound 80, 3-(2,6-difluorophenyl)-7-((5-fluoropyridin-2-yl)amino)-1-(tetrahydro-2H-pyran-4-yl)-1,6-naphthyridin-2(1H)-one]: the EC50 was over 10 µM in the assay with Ramos (Homo sapiens, Ramos, 48 h) and under 1 µM in the assay on DoHH2 (Homo sapiens, DOHH-2). The IC50 at Lyn is under 0.1 µM; at Src it was over 5 µM.

In the case of `O=c1c(-c2c(F)cccc2F)cc2cnc(Nc3ccc(F)cn3)cc2n1-c1ccccc1` [Compound 81, 3-(2,6-difluorophenyl)-7-((5-fluoropyridin-2-yl)amino)-1-phenyl-1,6-naphthyridin-2(1H)-one], the EC50 in the assay with Ramos (Homo sapiens, Ramos, 48 h) was over 10 µM; with DoHH2 (Homo sapiens, DOHH-2) it was 1 to 10 µM. Further, the IC50 at Lyn and at Src was under 0.1 µM throughout.

Turning to `CCN(CC)CCOc1ccc(Nc2cc3c(cn2)cc(-c2ccccc2)c(=O)n3CC)cc1` [Compound 86], the EC50 is over 10 µM with Ramos (Homo sapiens, Ramos, 48 h) and 1 to 10 µM with DoHH2 (Homo sapiens, DOHH-2). Besides, the values for the IC50 on Lyn and on Src were under 0.1 µM and 1 µM, respectively.

Take `CCn1c(=O)c(-c2ccccc2)cc2cnc(NC3=NCCO3)cc21` [Compound 90]: the EC50 is over 10 µM with Ramos (Homo sapiens, Ramos, 48 hrs) and over 10 µM in the assay with DoHH2 (Homo sapiens, DOHH-2). For the same molecule, the IC50 on BTK (read-out: BTK IC50) is over 5 µM.

On to `CCn1c(=O)c(-c2ccccc2)cc2cnc(NC3=NCCS3)cc21` [Compound 91], for which the EC50 in the assay on Ramos (Homo sapiens, Ramos, 48 hrs) is over 10 µM; in the assay with DoHH2 (Homo sapiens, DOHH-2) it was over 10 µM. The IC50 at BTK (read-out: BTK IC50) is over 5 µM.

`CCn1c(=O)c(-c2cc(OC)ccc2F)cc2cnc(Nc3ccc(N(C)C4CCN(C)CC4)cn3)cc21` [Compound 119, 1-ethyl-3-(2-fluoro-5-methoxyphenyl)-7-((5-(methyl(1-methylpiperidin-4-yl)amino)pyridin-2-yl)amino)-1,6-naphthyridin-2(1H)-one]: the EC50 in the assay with Ramos (Homo sapiens, Ramos, 48 hrs) is 1 to 10 µM; in the assay on DoHH2 (Homo sapiens, DOHH-2), under 1 µM. For the same molecule, the IC50 at BTK was in the range of 0.1 to 1 µM.

For orientation: EC50 means the concentration that produces a half-maximal response. Usually IC50 stands for the concentration that gives 50% inhibition.
